Experimental findings from patent US11286258B2, “Nature-inspired anticancer and antibacterial motifs and pharmaceutical composition thereof” (University of Sharjah, priority 2020, dated 2022) are described below.

For assay [1], the system named is SKBR3. In words: MTT cell viability, SKBR3. It is filed as cell-based. To be noted: Homo sapiens, SK-BR-3; breast cancer; 48 h of drug treatment; average of three experiments. As for the experimental part: (§1) Cell viability studies: Cell viability was assessed using the MTT assay as described before. In brief, all cancer cell lines were seeded at a density of 4×10^4/well in 96 well flat-bottom plates. After 24 h from seeding, cells were treated with the synthesized compounds and left for an incubation period of 48 h. Upon reaching the indicated time point, the media was removed and replaced with 200 μL fresh media containing 0.5 mg/mL of MTT tetrazolium dye (Sigma-Aldrich). Cells were then incubated with MTT solution for 2 h at 37° C. The resultant formazan crystals were dissolved in 200 μl/well of DMSO and absorbance was measured at 570 nm using a microplate reader (Thermo Scientific).

Assay [2] deals with AGS. The assay is described as follows: MTT cell viability, AGS. As to conditions: Homo sapiens, stomach cancer, 48 h of drug treatment, average of three experiments. It is filed as cell-based. As for the experimental part:
as §1

For assay [3], the system named is JIMT1. In words: MTT cell viability, JIMT1. As to conditions: Homo sapiens, JIMT-1; breast cancer; 48 h of drug treatment; average of three experiments. It is filed as cell-based. As for the experimental part: as §1
Assay [4] concerns SKBR3 and SKOV3. The assay is described as follows: Crystal violet and DAPI staining. Format: cell-based, human. To be noted: compared to compounds 1d and 1k; 48 h. As for the experimental part:
Colony formation assay: Human Normal epithelial cells, SKBR3, and SKOV3 cells were treated with 1d, 1e and 1k compounds with indicated concentrations for 48 h. Then cells were fixed with colony fixation solution (Acetic acid/Methanol (1:7) vol/vol) at room temperature. 15 minutes later fixation solution was removed and cells were washed again carefully with 1×PBS. Cells were stained with 0.5% crystal violet at room temperature for 20 minutes. Crystal violet was removed and cells were washed carefully 3 times with distilled water to remove excess dye. Colony growth was visualized by crystal violet staining. DAPI staining: SKBR3 and SKOV3 cells were treated with indicated compounds. After 48 h of treatment, the media were removed from cell lines and cells were washed with 1× cold PBS. Cells were fixed with (Acetic acid/Methanol (1:7) vol/vol)) solution for 15 minutes at RT and then washed with 1× cold PBS. Permeabilization was performed with 0.1% Triton X-100 for 5 minutes and then cells were washed with 1× cold PBS. Cells were stain with DAPI solution for 15 minutes at RT and then cells were washed 3 times with 1× cold PBS. Images were taken using a fluorescence microscope.

Assay [5] concerns SKOV3. In words: MTT cell viability, SKOV3. It is filed as cell-based. To be noted: Homo sapiens, SK-OV-3; 48 h of drug treatment; average of three experiments. As for the experimental part:
as §1

Assay [6] relates to SKBR3 cells. The assay is described as follows: Western blot, autophagy- and iron metabolism-related proteins, SKBR3. Format: cell-based, human. As for the experimental part:
Western Blotting (autophagy- and iron metabolism-related proteins): Cells were grown in DMEM supplemented with 10% FBS and 1×PEST (Penicillin and streptomycin antibiotics) at 37° C. in incubator having humidified atmosphere with 5% CO2. The media were removed and cells were washed twice with 1× cold PBS. Cells lysis was performed with RIPA lysis buffer containing (150 mM sodium chloride, 1.0% NP-40, 0.1% SDS, 50 mM Tris pH 8.0, 0.5% sodium deoxycholate supplemented with protease inhibitors cocktail). Cells were kept on icebox during the lysis process. Cold lysis buffer was added to each well directly and then cells were scraped and collected in 1.5 ml Eppendorf tube. Cell lysis was kept on icebox for 20 minutes and then centrifuged at 4° C. for 10 minutes. The supernatant was collected and the pellet was discarded. After, protein quantification, samples were boiled in 5× loading buffer at 95° C. for 5 minutes. After completion of the gel running and transfer process, the membrane was stained with ponceau solution. After that, the membrane was washed with 1×TBST and then blocked in 5% non-fat dry milk for 1 hr at room temperature. The membrane was washed 3 times with 1×TBST and then incubated with indicated primary antibodies at 4° C. overnight. Primary antibodies were removed; the membrane was washed 3 times with 1×TBST and then incubated with secondary antibodies for 2 h at room temperature. Secondary antibodies were diluted in 5% non-fat dry milk in 1× TB ST. After removal of the secondary antibody, the membrane was washed 3 times with 1×TBST. The membrane was incubated in ECL solution and the signal was developed using Gel Doc system from Biorad.

Assay [7] relates to MDA-MB-231. The assay is described as follows: MTT cell viability, MDA-MB-231. As to conditions: Homo sapiens, breast cancer, 48 h of drug treatment, average of three experiments. Format: cell-based. As for the experimental part: as §1
Assay [8] concerns HCT-116 cells. The assay is described as follows: Western blot, apoptotic biomarkers, tumor suppressor genes and oncogenes, HCT-116. It is filed as cell-based, human. As to conditions: for PARP cleavage / Cleavage of caspase7 and caspase-3 / Levels of p53 proteins / c-Myc oncogene level: HCT-116; for PARP cleavage / Cleavage of caspase7 and caspase-3: 1 to 4 μM, 48 h; for Cleavage of caspase7 and caspase-3: clear at 4 μM; for Levels of p53 proteins: at higher concentrations; for c-Myc oncogene level: dose-dependent manner; for Levels of BAX: treated cells, parallel to decreased p53. As for the experimental part: Western blotting (apoptotic biomarkers, tumor suppressor genes and oncogenes): Hep3B and HCT-116 cells were treated with 1f and 1h compounds with increasing concentrations from 1 to 4 μM for 48 h. After reaching the time point, proteins were extracted from the collected cells after their lyses, and protein quantification was performed using a Detergent compatible (DC) protein assay kit (Bio-Rad) following the manufacturer's instructions. 12% SDS-polyacrylamide gels were used to separate the proteins, following the proteins were transferred onto nitrocellulose membrane using a semi-dry transfer cell. After transfer, membranes were incubated with primary antibodies and the incubation was left overnight at 4° c. The following antibodies were implicated: anti-β actin (Cell Signalling #4970), anti-caspase3 (Cell Signalling #14220), anti-caspase-7 (Cell Signalling33 #9492), anti-PARP (Cell Signalling #9532), anti-P53 (Cell Signalling #2527), anti-C-myc (Cell Signalling #18583), and anti-BAX (#5023). Finally, membranes were incubated with secondary conjugated with horseradish peroxidase. The indicated proteins were detected by chemiluminescence.

Turning to `FC(F)(F)c1ccc(N/N=C2\C=C[C@@]3(CC2)CC[C@@H]2NCCc4c2n3c2ccccc42)cc1` (racemic) [Compound 1e], the IC50 in assay [1] amounted to 1.96 ± 0.08 µM; in assay [2], 3.31 ± 0.12 µM; in assay [3], 3.08 ± 0.14 µM; in assay [5], 3.84 ± 0.21 µM; in assay [7] it was 3.63 ± 0.06 µM. Besides, the “Nuclear damage in cancer cell lines (DAPI staining)” value in assay [4] is reported as “greater levels of nuclear damage”. Further, the “Expression of BECLIN-1” value in assay [6] is on record as “induced”. In addition, in assay [6], the “Expression of Ferritin (FTH1)” value is on record as “induced”. Further, the “Expression of LC3B1/II” value in assay [6] is recorded as “induced”. Besides, the “Expression of pH2AX” value in assay [6] is given as “induced”.

As to `FC(F)(F)Oc1ccc(N/N=C2\C=C[C@@]3(CC2)CC[C@@H]2NCCc4c2n3c2ccccc42)cc1` [Compound 1f], in assay [8], the PARP cleavage result was “PARP cleavage”; the “Cleavage of caspase7 and caspase-3” value is on record as “cleavage”; the “Levels of p53 proteins” value was “decreased”; the c-Myc oncogene level result is given as “downregulate”. Moreover, the “Levels of BAX” value in assay [8] is “decreased levels”.

On to `Cc1ccc2c(c1)c1c3n2[C@@]2(C=C/C(=N\Nc4ccc(C(F)(F)F)cc4)CC2)CC[C@@H]3NCC1` [Compound 1h], for which, in assay [8], the PARP cleavage entry is given as “PARP cleavage”; the “Cleavage of caspase7 and caspase-3” value is reported as “cleavage”; the “Levels of p53 proteins” value is reported as “decreased”; the c-Myc oncogene level entry is listed as “downregulate”. The “Levels of BAX” value in assay [8] was “decreased levels”.

Regarding `COc1ccc2c(c1)c1c3n2[C@@]2(C=C/C(=N\Nc4ccc(C(F)(F)F)cc4)CC2)CC[C@@H]3NCC1` [Compound 1k], the IC50 in assay [1] amounted to 4.1 ± 0.21 µM; in assay [2], 4.66 ± 0.15 µM; in assay [3] it was 3.49 ± 0.06 µM; in assay [5], 4.68 ± 0.22 µM; in assay [7], 4.03 ± 0.16 µM.
